Reference: publication PMC11181328 (Journal of Medicinal Chemistry, 2024)
Structures can show the parent of a compound that is named as a salt. Where two headings read alike, the source gives them in different places.

Columns and labels:
KOR [1] = target: T1, KOR (Mus musculus, UniProt P33534); assay: [35S]-GTPγS functional assay, KOR; type: biochemical; conditions: for Emax: percent of U50,488 full agonist control; for EC50: mKOR-CHO membranes
T1 construct: expressed in transfected cells; membrane homogenate

male Swiss Webster mice [2] = assay: Warm-water tail immersion assay, agonism (single dose screen and potency); type: in vivo, mouse; conditions: for antinociception compared to the vehicle group / percent MPE: single dose 10 mg/kg s.c.; for antinociception compared to the vehicle group: 20 min; for ED50: Mus musculus, sc, read-out: potency ED50 [95% CI] mg/kg, s.c., 20 min prior to tail withdrawal latency measurement, male Swiss Webster mice; for percent MPE: withdrawal latency 20 min after administration
MOR [3] = target: T2, MOR (Mus musculus, UniProt P42866); assay: Competitive radioligand binding assay, MOR; design: expressed in transfected cells; membrane homogenate
MOR [4] = target: T2, MOR; conditions: percent of DAMGO; MOR functional activity first published; cited from earlier work
KOR [5] = target: T1, KOR; assay: Competitive radioligand binding assay, KOR
DOR [6] = target: T3, DOR (Homo sapiens, UniProt P41143); assay: [35S]-GTPγS functional assay, DOR; type: biochemical; conditions: for EC50: hDOR-CHO membranes; for Emax: percent of SNC80 full agonist control
T3 construct: expressed in transfected cells; membrane homogenate

DOR [7] = target: T3, DOR; assay: Competitive radioligand binding assay, DOR
MOR [8] = target: T2, MOR; assay: [35S]-GTPγS functional assay, MOR; type: biochemical; design: expressed in transfected cells; membrane homogenate; conditions: for EC50: mMOR-CHO membranes; for Emax: read-out: [35S]-GTPγS functional activity MOR Emax (%)
male Swiss Webster mice [9] = assay: Warm-water tail immersion assay, receptor selectivity study; type: in vivo, mouse
male Swiss Webster mice [10] = conditions: warm-water tail immersion; cited from earlier work
male Swiss Webster mice [11] = assay: Warm-water tail immersion assay, time course study; type: in vivo, mouse
[12] = system: male and female Sprague–Dawley rats; conditions: intravenous, FR5 schedule of reinforcement, 2 h sessions
male Swiss Webster mice [13] = assay: Locomotor activity assay; type: in vivo, mouse; conditions: s.c., 30 min session
Method: This hypolocomotion could result in false positives in assays of evoked antinociception such as WWTI.[115] Thus, a locomotor activity assay was utilized to assess this end point in accordance with previous studies.[28] In brief, the day prior to testing, mice were placed in the open field chamber for acclimation. On the test day, they were injected with compounds 21, 23, NLF, or vehicle and immediately placed back into the open field chamber. Photo beam breaks then recorded the mouse’s locomotion over a 30 min test period.
Six open field activity chambers (Med Associates, St. Albans, VT) were used in the locomotor activity study. Each chamber is located inside a sound-attenuating cubicle (Med Associates) and is equipped with a ventilation system. The interior of the chamber consists of a 27 × 27 cm plexiglass enclosure wired with photobeam cells and connected to a computer console that monitors the activity of the animal.
The day before the experiment, mice were acclimated to the activity chambers for a period of 30 min. On the day of the experiment, mice were administered vehicle or test compound s.c., placed into the activity chambers immediately and activity was monitored and recorded for a period of 30 min.
The primary dependent measures are total (1) distance traveled (cm), (2) ambulatory counts, (3) vertical counts, and (4) average speed (cm/s) within the 30 min session. Data are shown as mean ± SEM. Data were compared using one-way or two-way ANOVA as appropriate and a significant ANOVA was followed by a Dunnet’s post hoc test as appropriate. Statistical significance was defined as p < 0.05.

DOR [14] = target: T3, DOR; conditions: read-out: radioligand binding affinity (Ki, nM) DOR; [3H]diprenorphine; cited from earlier work
in vitro [15] = conditions: human, s9
in vitro [16] = conditions: Sprague-Dawley, rat, s9
male Swiss Webster mice [17] = assay: Warm-water tail immersion assay, antagonism of morphine; type: in vivo, mouse; conditions: s.c. 5 min prior to morphine
[18] = [3H]naloxone, mMOR-CHO membranes
[19] = [3H]naloxone, mMOR-CHO membranes, read-out: radioligand binding affinity (Ki, nM) MOR
[20] = [3H]diprenorphine, mKOR-CHO membranes

| Structure (SMILES) | Emax (KOR [1]) | antinociception compared to the vehicle group (male Swiss Webster mice [2]) | radioligand binding affinity (Ki, nM) MOR (MOR [3]; [18]) | EC50 (KOR [1]) | EC50 (DOR [6]) | Ki (MOR [3]) | Ki (KOR [5]) | EC50 (MOR [8]) | Ki (DOR [7]) | further results |
| --- | --- | --- | --- | --- | --- | --- | --- | --- | --- | --- |
| Cl.O=C(CCc1ccoc1)N[C@H]1CC[C@@]2(O)[C@H]3Cc4ccc(O)c5c4[C@@]2(CCN3CC2CC2)[C@H]1O5 [Compound 6, 17-Cyclopropylmethyl-3,14β-dihydroxy-4,5α-epoxy-6α-[3′-(furan-3″-yl)propanamido]morphinan Hydrochloride] | 80.3 ± 4.73% | lack of significant antinociceptive effect | subnanomolar |  |  |  |  |  |  | Ki (MOR [3]; [19]): 0.44 ± 0.1 nM; [35S]-GTPγS functional activity MOR Emax (%) (MOR [4]): 27.62 ± 1.96% |
| Cl.O=C(CCc1ccoc1)N[C@@H]1CC[C@@]2(O)[C@H]3Cc4ccc(O)c5c4[C@@]2(CCN3CC2CC2)[C@H]1O5 [Compound 8, 17-Cyclopropylmethyl-3,14β-dihydroxy-4,5α-epoxy-6β-[3′-(furan-3″-yl)propanamido]morphinan Hydrochloride] | 95.9 ± 1.43% | lack of significant antinociceptive effect | subnanomolar |  |  |  |  |  |  | Ki (MOR [3]; [19]): 0.21 ± 0.01 nM; [35S]-GTPγS functional activity MOR Emax (%) (MOR [4]): above 40% |
| Cl.O=C(CCc1ccco1)N[C@@H]1CC[C@@]2(O)[C@H]3Cc4ccc(O)c5c4[C@@]2(CCN3CC2CC2)[C@H]1O5 [Compound 16, 17-Cyclopropylmethyl-3,14β-dihydroxy-4,5α-epoxy-6β-[3′-(furan-2″-yl)propanamido]morphinan Hydrochloride] |  | lack of significant antinociceptive effect | subnanomolar | 1.62 ± 0.12 nM | 16.8 ± 2.96 nM |  |  |  |  | Ki (MOR [3]; [19]): 0.28 ± 0.02 nM; radioligand binding affinity (Ki, nM) KOR (KOR [5]; [20]): subnanomolar; Ki (KOR [5]; [3H]diprenorphine, mKOR-CHO membranes, read-out: radioligand binding affinity (Ki, nM) KOR): 0.61 ± 0.07 nM; [35S]-GTPγS functional activity MOR Emax (%) (MOR [4]): above 40%; Ki (DOR [7]; [3H]diprenorphine, hDOR-CHO membranes, read-out: radioligand binding affinity (Ki, nM) DOR): 33 ± 3.58 nM |
| O=C(/C=C/c1ccco1)N[C@H]1CC[C@@]2(O)[C@H]3Cc4cccc5c4[C@@]2(CCN3CC2CC2)[C@H]1O5 [Compound 18, 17-Cyclopropylmethyl-4,5α-epoxy-6α-[(2E)-3′-(furan-2″-yl)prop-2-enamido]-14β-hydroxymorphinan Hydrochloride] | 85.2 ± 6.52% | lack of significant antinociceptive effect |  | 1370 ± 89 nM | 1240 ± 147 nM | 107 ± 8.37 nM | 249 ± 32 nM | 1510 ± 948 nM | 456 ± 26.4 nM | selectivity ratio δ/κ (KOR [5]; ratio of Ki values): 2; Emax (MOR [8]): 16 ± 2.91%; Emax (DOR [6]): 75 ± 5.1% |
| O=C(/C=C/c1ccco1)N[C@@H]1CC[C@@]2(O)[C@H]3Cc4cccc5c4[C@@]2(CCN3CC2CC2)[C@H]1O5 [Compound 20, 17-Cyclopropylmethyl-4,5α-epoxy-6β-[(2E)-3′-(furan-2″-yl)prop-2-enamido]-14β-hydroxymorphinan Hydrochloride] | 99.7 ± 5.88% | lack of significant antinociceptive effect |  | 178 ± 18.1 nM | 860 ± 148 nM | 42.4 ± 2.34 nM | 7.03 ± 0.92 nM | 1140 ± 984 nM | 551 ± 64 nM | selectivity ratio δ/κ (KOR [5]; ratio of Ki values): 78; selectivity ratio μ/κ (KOR [5]; ratio of Ki values): 6; Emax (MOR [8]): 12.8 ± 3%; Emax (DOR [6]): > 80% |
| O=C(/C=C/c1ccco1)N[C@H]1CC[C@@]2(O)[C@H]3Cc4ccc(O)c5c4[C@@]2(CCN3CC2CC2)[C@H]1O5 [Compound 22, 17-Cyclopropylmethyl-3,14β-dihydroxy-4,5α-epoxy-6α-[(2E)-3′-(furan-2″-yl)prop-2-enamido]morphinan Hydrochloride] |  |  | subnanomolar | 13.7 ± 2.52 nM | 21.1 ± 1.41 nM | 0.53 ± 0.06 nM | 1.08 ± 0.03 nM | 2.97 ± 0.45 nM | 8.75 ± 0.58 nM | ED50 (male Swiss Webster mice [2]): 4.08 mg/kg; percent MPE (male Swiss Webster mice [2]): ≥ 80% |
| O=C(/C=C/c1ccco1)N[C@@H]1CC[C@@]2(O)[C@H]3Cc4ccc(O)c5c4[C@@]2(CCN3CC2CC2)[C@H]1O5 [Compound 24, 17-Cyclopropylmethyl-3,14β-dihydroxy-4,5α-epoxy-6β-[(2E)-3′-(furan-2″-yl)prop-2-enamido]morphinan Hydrochloride] |  |  | subnanomolar | 0.54 ± 0.11 nM | 13.1 ± 2.09 nM | 0.3 ± 0.02 nM | 0.17 ± 0.02 nM | 6.76 ± 1.99 nM | 12.8 ± 2.37 nM | ED50 (male Swiss Webster mice [2]): 3.32 mg/kg; percent MPE (male Swiss Webster mice [2]): ≥ 80%; radioligand binding affinity (Ki, nM) KOR (KOR [5]; [20]): subnanomolar |
| CN(C(=O)/C=C/c1ccoc1)[C@@H]1CC[C@@]2(O)[C@H]3Cc4ccc(O)c5c4[C@@]2(CCN3CC2CC2)[C@H]1O5.Cl [NLF, Nalfurafine, reference compound] |  |  |  |  |  |  |  |  |  | antagonism of antinociceptive effects by nor-BNI (KOR antagonist) pretreatment (male Swiss Webster mice [9]; 10 mg/kg nor-BNI s.c. 24 h prior to 0.1 mg/kg test compound s.c. (23 also 0.05 mg/kg)): significantly lower; antagonism of antinociceptive effects by β-FNA (MOR antagonist) pretreatment (male Swiss Webster mice [9]; 10 mg/kg β-FNA s.c. 24 h prior to 0.1 mg/kg test compound s.c.): not antagonized by β-FNA; antagonism of antinociceptive effects by NTI (DOR antagonist) pretreatment (male Swiss Webster mice [9]; 15 mg/kg NTI s.c. 30 min prior to 0.1 mg/kg test compound s.c. (23 also 0.05 mg/kg)): significantly lower; antagonism of antinociceptive effects by NTI and nor-BNI pretreatment together (male Swiss Webster mice [9]; nor-BNI 10 mg/kg + NTI 15 mg/kg s.c. prior to test compound): did not result in a more drastic decrease than either antagonist alone; potency ED50 [95% CI] mg/kg (male Swiss Webster mice [10]): 0.046 [0.016–0.126] mg/kg; antinociceptive effects significant until (time postinjection) (male Swiss Webster mice [11]; 0.1 mg/kg s.c.): 1 h; return to the baseline postinjection (male Swiss Webster mice [11]; 0.1 mg/kg s.c.): 9 h; reinforcing effect (number of infusions earned versus saline) [12]: did not function as a reinforcer; locomotor activity (male Swiss Webster mice [13]): slight dose-dependent trends for decreased locomotion; average speed by time versus vehicle (male Swiss Webster mice [13]; Figure 6F–H): significantly different from vehicle; Ki (DOR [14]): 116 ± 20.9 nM |
| O=C(O)Cc1ccccc1Nc1c(Cl)cccc1Cl [diclofenac, reference compound] |  |  |  |  |  |  |  |  |  | half-life at 1 h, 1 µM (in vitro [15]): 0.308 h; microsomal CLint at 1 h, 1 µM (in vitro [15]): 37.4 µL/min/mg; half-life at 1 h, 1 µM (in vitro [16]): 1.7 h; microsomal CLint at 1 h, 1 µM (in vitro [16]): 6.8 µL/min/mg |
| CN1CC[C@]23c4c5ccc(O)c4O[C@H]2[C@@H](O)C=C[C@H]3[C@H]1C5 [morphine, (-)-Morphine sulfate pentahydrate, reference compound] |  |  |  |  |  |  |  |  |  | percent MPE (male Swiss Webster mice [2]): 100%; effects back to baseline (male Swiss Webster mice [11]; morphine 10 mg/kg s.c.): 5 h; time of significant antinociception postinjection (male Swiss Webster mice [11]; morphine 10 mg/kg s.c.): 30 to 60 min |
| C=CCN1CC[C@]23c4c5ccc(O)c4O[C@H]2C(=O)CC[C@@]3(O)[C@H]1C5 [naloxone, Naloxone HCl] |  |  |  |  |  |  |  |  |  | blockade of morphine antinociception (male Swiss Webster mice [17]): sufficiently antagonized morphine antinociception |
